Laboratory results reported in US20260167972A1, “AMINO ACID DERIVATIVES AS NOVEL DELIVERY AGENTS FOR FUNCTIONAL DELIVERY OF OLIGONUCLEOTIDES” (University of Rochester, priority 2022, published 2026).
Entries after “also recorded” stand apart in the source; their conditions may differ.

Legend:
[1] = tested on: A549 lung adenocarcinoma cells; assay: Cellular uptake of FITC-siRNA by fluorescence microscopy; assay type: cell-based, human; settings: A549 cells dosed 4 hours; green fluorescence, FIG. 5
Protocol: The N-X-Phe-DAP derivatives facilitate functional delivery of siRNA. N-X-Phe-DAP derivatives (100 μM) were incubated with a fluorescently labelled siRNA (FITC-siRNA, 600 nM) for 30 minutes in the dark followed by dilution into DMEM. A549 lung carcinoma cells were then dosed with these solutions for 4 hours, after which N-X-Phe-DAP/siRNA cellular uptake was visualized by confocal microscopy to visual FITC-siRNA in fixed cells in which the nuclei had been stained with DAPI nuclear stain (FIG. 5). Translocation of siRNA with the N-X-Phe-DAP derivatives was compared with Lipofectamine by observing the presence of green fluorescence (FITC-siRNA) in the images.
Sample Preparation for Cell-Based Experiments: For delivery analysis and functional knockdown, N-X-Phe-DAP derivatives (10 μL, 1 mM) or Lipofectamine 3000 (6 μL) was mixed with TTF-1 siRNA (Santa Cruz Biotechnology sc-36756, 6 μL, 10 μM) in Ultrapure™ DNase/RNase-Free Distilled Water (Invitrogen 10977015) to give a final volume of 100 μL. These mixtures were incubated for 30 minutes at room temperature, followed by dilution into 1×DMEM (Gibco 11965092, 1.9 mL). For cytotoxicity assays, N-X-Phe-DAP derivatives (10 μL, 1 mM) were diluted into 1×DMEM (Gibco 11965092, 1.9 mL).
N-X-Phe-DAP-siRNA Cellular Delivery Analysis A549 lung adenocarcinoma cells (ATCC #) were seeded at a density of 1.05×10^5 cells/well in a glass bottom 24-well plate (500 μL) and grown to 70-90% confluency. Cells were washed with 1× phosphate buffered saline (PBS, Gibco 14190144), samples were added (500 μL/well), and incubated for 4 h at 37° C., 5% C02. After 4 h, media was removed, cells were washed with 1×PBS, and fixed with 4% paraformaldehyde solution. After 10 min, cells were washed twice with 1×PBS and incubated with DAPI stain (1 μg/mL) in the dark. After 5 min, cells were washed three times with 1×DPBS and stored at −20° C. until imaging. A Nikon T1 epifluorescence microscope was used for fluorescent imaging. Images were collected at 40× magnification using NIS-Elements Viewer (Nikon) software. All images were processed in Adobe Photoshop by selecting “image” then “Adjustments” then “Levels”. In the pop-up window, “Channel” was selected followed by “Green” and Output levels were adjusted with an upper limit of 200. In the sample pop-up window under “Options” the “Enhance Per Channel Contrast” was selected under algorithms.

[2] = Transmission electron microscopy of N-X-Phe-DAP/siRNA nanoparticles; assay type: physicochemical; settings: for Diameter (nm), TEM: N-X-Phe-DAP/siRNA nanoparticles, 5 μM derivative, 30 nM siRNA, ± standard deviation; for morphology of siRNA nanoparticles/aggregates: TEM images, FIG. 4
Protocol: Each N-X-Phe-DAP derivative (100 μM) was mixed with siRNA (600 nM) in H2O for 30 minutes, followed by dilution of this mixture into DMEM cell culture media to final concentrations of 5 μM N-X-Phe-DAP derivative and 30 nM siRNA. Dynamic light scattering (DLS) and transmission electron microscopy (TEM) were utilized to analyze the physical characteristics of the resulting N-X-Phe-DAP/siRNA nanoparticles (Table 2, FIG. 4). […] Average diameter (nm), determined by dynamic light scattering (DLS) and TEM imaging, is reported as the average of […] with the error reported as the standard deviation of the mean. Binding affinity (Kd) of each agent to siRNA was determined by a slot blot filtration assay with values reported as the average of three measurements and error reported as the standard deviation of the mean. […] (B) Diameter (nm) determined by TEM (n=9, ***p≤0.001 ****p≤0.0001).
Transmission Electron Microscopy: N-X-Phe-DAP derivatives (100 μM) were complexed with siRNA (600 nM) in Ultrapure™ DNase/RNase-Free Distilled Water (Invitrogen 10977015) and allowed to incubate for 30 minutes at room temperature. These solutions were then diluted into water to give final concentrations of 5 μM Phe derivative and 30 nM siRNA. Samples (5 μL) were spotted on 200 mesh carbon coated copper grids and excess solvent was removed by capillary action with filter paper after 60 seconds. Grids were then stained with uranyl acetate (5 μL) for 60 seconds by excess solvent was removed by capillary action with filter paper. Grids were left to dry for 10 minutes. Images were taken using a Hitachi 7650 transmission electron microscope with an accelerating voltage of 80 kV.

NCCCNC(=O)[C@H](Cc1ccccc1)NC(=O)Cc1cccc2ccccc12 [1-Nap-Phe-DAP]
FITC-siRNA delivery compared with Lipofectamine [1]: improved siRNA delivery
Diameter (nm), TEM [2]: 211 ± 17 nm
morphology of siRNA nanoparticles/aggregates [2]: spherical micelle-like structures

NCCCNC(=O)[C@H](Cc1ccccc1)NC(=O)Cc1ccc2ccccc2c1 [2-Nap-Phe-DAP]
FITC-siRNA delivery compared with Lipofectamine [1]: on par with Lipofectamine
Diameter (nm), TEM [2]: 450 ± 27 nm
morphology of siRNA nanoparticles/aggregates [2]: spherical micelle-like structures

NCCCNC(=O)[C@H](Cc1ccccc1)NC(=O)OCc1ccccc1 [Cbz-Phe-DAP]
FITC-siRNA delivery compared with Lipofectamine [1]: improved siRNA delivery
Diameter (nm), TEM [2]: 93 ± 9 nm
morphology of siRNA nanoparticles/aggregates [2]: smaller spheres

NCCCNC(=O)[C@H](Cc1ccccc1)NC(=O)C1CCCCC1 [Cyc-Phe-DAP]
FITC-siRNA delivery compared with Lipofectamine [1]: on par with Lipofectamine
Diameter (nm), TEM [2]: 71 ± 2 nm
morphology of siRNA nanoparticles/aggregates [2]: smaller spheres

NCCCNC(=O)[C@H](Cc1ccccc1)NC(=O)CC1c2ccccc2-c2ccccc21 [Fm-Phe-DAP]
FITC-siRNA delivery compared with Lipofectamine [1]: on par with Lipofectamine
Diameter (nm), TEM [2]: 163 ± 10 nm
morphology of siRNA nanoparticles/aggregates [2]: spherical micelle-like structures

NCCCNC(=O)[C@H](Cc1cccc(F)c1)NC(=O)OCC1c2ccccc2-c2ccccc21 [Fmoc-3F-Phe-DAP]
FITC-siRNA delivery compared with Lipofectamine [1]: on par with Lipofectamine
Diameter (nm), TEM [2]: 170 ± 8 nm
morphology of siRNA nanoparticles/aggregates [2]: mixtures of spherical particles and one-dimensional fibril-like structures

NCCCNC(=O)[C@H](Cc1c(F)c(F)c(F)c(F)c1F)NC(=O)OCC1c2ccccc2-c2ccccc21 [Fmoc-F5-Phe-DAP]
FITC-siRNA delivery compared with Lipofectamine [1]: improved siRNA delivery
Diameter (nm), TEM [2]: 140 ± 12 nm
morphology of siRNA nanoparticles/aggregates [2]: mixtures of spherical particles and one-dimensional fibril-like structures

NCCCNC(=O)[C@H](Cc1ccccc1)NC(=O)OCC1c2ccccc2-c2ccccc21 [Fmoc-Phe-DAP]
FITC-siRNA delivery compared with Lipofectamine [1]: improved siRNA delivery
Diameter (nm), TEM [2]: 136 ± 7 nm
morphology of siRNA nanoparticles/aggregates [2]: spherical micelle-like structures

CCCCCCC(=O)N[C@@H](Cc1ccccc1)C(=O)NCCCN [Hex-Phe-DAP]
FITC-siRNA delivery compared with Lipofectamine [1]: improved siRNA delivery
Diameter (nm), TEM [2]: 81 ± 10 nm
morphology of siRNA nanoparticles/aggregates [2]: mixtures of spherical particles and one-dimensional fibril-like structures; also recorded: primarily exhibiting fibril and sheet-like structures that aggregate into bundles

NCCCNC(=O)[C@H](Cc1ccccc1)NC(=O)CCCc1ccc2ccc3cccc4ccc1c2c34 [Pyr-Phe-DAP]
FITC-siRNA delivery compared with Lipofectamine [1]: improved siRNA delivery
Diameter (nm), TEM [2]: 50 ± 5.0 nm
morphology of siRNA nanoparticles/aggregates [2]: mixtures of spherical particles and one-dimensional fibril-like structures; also recorded: dominated by fibril-like structures with some evidence of spherical nanoparticles
